The test system of one experiment is MRSA ATCC 43300 SAU.399. Description: microbe, parasite or virus in culture. The following applies: ATCC 43300. As to the method:
(§1) The activity of paenibacterin against several strains of Gram-positive and Gram-negative foodborne pathogens is summarized in Table 10. The data is reported as minimum inhibitory concentrations (MIC) as an average of three replicates for paenibacterin against the various listed bacterial strains. […] MICs were determined according to the CLSI broth microdilution method (see, Clinical and Laboratory Standards Institute (CLSI). 2009. Methods for dilution antimicrobial susceptibility tests for bacteria that grow aerobically; approved standard. […]. CLSI, Wayne, Pa.). Briefly, HPLC-purified paenibacterin was dissolved in methanol and diluted to appropriate concentration with cation-adjusted Mueller-Hinton II broth (Difco). Aliquots (25 μl) of serially-diluted paenibacterin was dispensed into wells of a 96-well plate; an equal amount of 1/10 diluted overnight bacterial culture was added to wells. Plates were incubated at 35° C. for 24 h. Cell growth after incubation was examined and determined using a microtiter plate reader at 600 nm. Concentration of paenibacterin is determined based on a molecular weight of 1604 Da.
(§2) The activity of paenibacterin was further tested against clinical isolates of the following Gram-positive bacteria: methicillin-sensitive Staphylococcus aureus (MSSA), methicillin-resistant S. aureus (MRSA), vancomycin-sensitive Enterococcus faecalis, vancomycin-resistant E. faecalis (VRE), Streptococcus pneumoniae, and laboratory derived daptomycin-resistant (DR) MSSA, MRSA, and VRE strains. The MICs were determined using the above described CLSI broth microdilution method, in which the method was performed with non-binding surface coated (NBS) 96-well plates.

A further experiment has as its system WT ATCC 49619 SPN.31. Description: microbe, parasite or virus in culture. As to conditions: ATCC 49619. On the procedure:
as §1, §2

Experiment [1] deals with DR-MSSA from SAU.42 SAU.278. Put plainly: microbe, parasite or virus in culture. As to conditions: SAU.278, DR-MSSA from SAU.42; NBS 96-well plates. On the procedure: as §1, §2
Experiment [2] has as its system DR-MRSA from MW2 SP SAU.1616. Description: microbe, parasite or virus in culture. The following applies: SAU.1616, DR-MRSA from MW2 SP; NBS 96-well plates. As to the method:
as §1, §2

Another experiment concerns MSSA ATCC 29213 SAU.42. Put plainly: microbe, parasite or virus in culture. As to the method: as §1, §2
Experiment [3] deals with DS-VRE ATCC 700802 EFS.807. Put plainly: microbe, parasite or virus in culture. On the procedure:
as §1, §2

Experiment [4] deals with DR-VRE from EFS.807 EFS.2731. Put plainly: microbe, parasite or virus in culture. The following applies: EFS.2731, DR-VRE from EFS.807; NBS 96-well plates. As to the method: as §1, §2
The test system of the next experiment is WT ATCC 29212 EFS.43. Put plainly: microbe, parasite or virus in culture. On the procedure: as §1, §2
The subject of the next experiment is KPN.2317. Description: MIC, CLSI broth microdilution, Gram-negative clinical isolates. Type of experiment: cell-based, Klebsiella pneumoniae. As to conditions: for MIC: Klebsiella pneumoniae, read-out: Minimum inhibitory concentration (MIC). On the procedure:
(§3) Plates were incubated at 35° C. for 24 h.
(§4) The activity of paenibacterin was also tested against clinical isolates of the following Gram-negative bacterial strains: four strains of the species Pseudomonas aeruginosa (PAE), three strains of the species Acinetobacter baumannii (ABA), two strains of the species Escherichia coli (ECO), and four strains of the species Klebsiella pneumoniae (KPN). Particularly, the strains of Gram-negative bacteria included polymyxin B-resistant (PMB-R) and polymyxin B-sensitive (PMB-S) strains of each above listed species. The MICs were determined using the above described CLSI broth microdilution method, in which the method was performed with both non-binding surface coated (NBS) and polystyrene (PS) 96-well plates (Tables 11 and 12, respectively). The MICs were generally lower in the NBS 96-well plates as compared to the PS 96-well plates.
(In broth dilution the organism is exposed to a series of concentrations in liquid medium.)

For the next experiment, the system named is PMB-S, KPN.2461. The description is as above. Type of experiment: cell-based, Klebsiella pneumoniae. On the procedure:
as §3, §4

For the next experiment, the system named is KPN.674. The description is as above. Type of experiment: cell-based, Klebsiella pneumoniae. As to conditions: Klebsiella pneumoniae, read-out: Minimum inhibitory concentration (MIC). On the procedure:
as §3, §4

For the next experiment, the system named is PMB-R, KPN.2463. Described as above. Type of experiment: cell-based, Klebsiella pneumoniae. On the procedure:
as §3, §4

The test system of another experiment is ATCC 25922 ECO.35. The description is as above. Type of experiment: cell-based, Escherichia coli. As to conditions: Escherichia coli, read-out: Minimum inhibitory concentration (MIC). On the procedure: as §3, §4
The next experiment deals with ECO.2276. The description is as above. Type of experiment: cell-based, Escherichia coli. As to conditions: Escherichia coli, read-out: Minimum inhibitory concentration (MIC). As to the method:
as §3, §4

Another experiment deals with ABA.2232. The description is as above. Type of experiment: cell-based, Acinetobacter baumannii. The following applies: Acinetobacter baumannii, read-out: Minimum inhibitory concentration (MIC). On the procedure: as §3, §4
The next experiment concerns ABA.2315. Described as above. Type of experiment: cell-based, Acinetobacter baumannii. On the procedure:
as §3, §4

For a further experiment, the system named is ABA.1570. The experiment is described as above. Type of experiment: cell-based, Acinetobacter baumannii. The following applies: Acinetobacter baumannii, read-out: Minimum inhibitory concentration (MIC). On the procedure: as §3, §4
The next experiment has as its system PAE.2325. Described as above. The following applies: Pseudomonas aeruginosa, read-out: Minimum inhibitory concentration (MIC). Type of experiment: cell-based, Pseudomonas aeruginosa. On the procedure: as §3, §4
Another experiment relates to PAE.44. The description is as above. The following applies: Pseudomonas aeruginosa, non-binding surface coated (NBS) 96-well plates, read-out: Minimum inhibitory concentration (MIC). Type of experiment: cell-based, Pseudomonas aeruginosa. As to the method:
as §3, §4

In a further experiment the test system is PAE.2281. The description is as above. Type of experiment: cell-based, Pseudomonas aeruginosa. As to conditions: Pseudomonas aeruginosa, read-out: Minimum inhibitory concentration (MIC). As to the method:
as §3, §4

The subject of a further experiment is PAE.999. The description is as above. Type of experiment: cell-based, Pseudomonas aeruginosa. The following applies: Pseudomonas aeruginosa, read-out: Minimum inhibitory concentration (MIC). On the procedure: as §3, §4

Structures are written as SMILES. Converted amounts (≈) assume the structure as drawn. Read-outs that look alike come from different tables or passages of the source.

With `CCCCCCCCCC(=O)N[C@@H](Cc1c[nH]c2ccccc12)C(=O)N[C@H](CC(N)=O)C(=O)N[C@@H](CC(=O)O)C(=O)N[C@@H]1C(=O)NCC(=O)N[C@@H](CCCN)C(=O)N[C@@H](CC(=O)O)C(=O)N[C@H](C)C(=O)N[C@@H](CC(=O)O)C(=O)NCC(=O)N[C@H](CO)C(=O)N[C@@H]([C@H](C)CC(=O)O)C(=O)N[C@@H](CC(=O)c2ccccc2N)C(=O)O[C@@H]1C` [daptomycin], the “Minimum inhibitory concentration (MIC)” value in the experiment on MRSA ATCC 43300 SAU.399 is 0.5 µg/mL (≈ 0.309 µM); with WT ATCC 49619 SPN.31, 0.5 µg/mL (≈ 0.309 µM); in [1] it was 8 µg/mL (≈ 4.94 µM); in [2], 16 µg/mL (≈ 9.87 µM); in the experiment with MSSA ATCC 29213 SAU.42 (ATCC 29213), 0.5 µg/mL (≈ 0.309 µM); in experiment [3] (ATCC 700802), 1 µg/mL (≈ 0.617 µM). Moreover, the figures for the “Minimum inhibitory concentration (MIC)” value (in experiment [4]; in the experiment with WT ATCC 29212 EFS.43 (ATCC 29212)) were over 32 µg/mL and 2 µg/mL (≈ 1.23 µM), respectively.

In the case of `C[C@@H](O)[C@H]1C(=O)N2C(C(=O)O)=C(S[C@@H]3CN[C@H](C(=O)N(C)C)C3)[C@H](C)[C@H]12` [meropenem #413, meropenem], the MIC in the experiment with KPN.2317 (NBS 96-well plates) is 0.0625 µg/mL (≈ 0.163 µM); in the experiment on KPN.2317 (PS 96-well plates), 0.03 µg/mL (≈ 0.0782 µM); in the experiment with PMB-S, KPN.2461 (Klebsiella pneumoniae, KPN.2461 (PMB-S), NBS 96-well plates, read-out: Minimum inhibitory concentration (MIC)) it was over 8 µg/mL; in the experiment on KPN.674 (NBS 96-well plates), 0.0625 µg/mL (≈ 0.163 µM); with KPN.674 (PS 96-well plates), 0.03 µg/mL (≈ 0.0782 µM); in the experiment with PMB-R, KPN.2463 (Klebsiella pneumoniae, KPN.2463 (PMB-R), NBS 96-well plates, read-out: Minimum inhibitory concentration (MIC)), over 8 µg/mL. In addition, the MIC is 0.03 µg/mL (≈ 0.0782 µM) in the experiment on ATCC 25922 ECO.35 (ATCC25922, ECO.35 (ATCC 25922), NBS 96-well plates); 0.016 µg/mL (≈ 0.0417 µM) in the experiment with ATCC 25922 ECO.35 (ATCC25922, ECO.35, PS 96-well plates); 0.03 to 0.06 µg/mL (≈ 0.0782 to 0.156 µM) in the experiment with ECO.2276 (NBS 96-well plates); 0.03 µg/mL (≈ 0.0782 µM) in the experiment on ECO.2276 (PS 96-well plates); 0.125 to 0.25 µg/mL (≈ 0.326 to 0.652 µM) in the experiment on ABA.2232 (NBS 96-well plates); 0.5 µg/mL (≈ 1.3 µM) with ABA.2232 (PS 96-well plates). Besides, the MIC in the experiment on ABA.2315 (Acinetobacter baumannii, NBS 96-well plates, read-out: Minimum inhibitory concentration (MIC)) is over 8 µg/mL; with ABA.1570 (NBS 96-well plates) it was 8 µg/mL (≈ 20.9 µM); with ABA.1570 (PS 96-well plates), over 8 µg/mL; with MSSA ATCC 29213 SAU.42 (Staphylococcus aureus, ATCC29213|MSSA, read-out: Minimum inhibitory concentration (MIC)) it was 0.125 µg/mL (≈ 0.326 µM); in experiment [3] (Enterococcus faecalis, ATCC700802|VRE, read-out: Minimum inhibitory concentration (MIC)), 4 µg/mL (≈ 10.4 µM); with WT ATCC 29212 EFS.43 (Enterococcus faecalis, ATCC29212, read-out: Minimum inhibitory concentration (MIC)), 2 µg/mL (≈ 5.22 µM). Also, the MIC in the experiment on PAE.2325 (NBS 96-well plates) is 2 to 4 µg/mL (≈ 5.22 to 10.4 µM); in the experiment with PAE.2325 (PS 96-well plates), 2 µg/mL (≈ 5.22 µM); with PAE.44, 1 µg/mL (≈ 2.61 µM); with PAE.2281 (NBS 96-well plates) it was 1 to 2 µg/mL (≈ 2.61 to 5.22 µM); in the experiment with PAE.2281 (PS 96-well plates), 0.5 µg/mL (≈ 1.3 µM); in the experiment on PAE.999 (NBS 96-well plates), over 8 µg/mL. In addition, the MIC in the experiment on PAE.999 (PS 96-well plates) was over 8 µg/mL. Besides, the “Minimum inhibitory concentration (MIC)” value is 0.06 µg/mL (≈ 0.156 µM) in the experiment on KPN.2317 (NBS 96-well plates); over 8 µg/mL in the experiment on PMB-S, KPN.2461 (KPN.2461, PS 96-well plates); over 8 µg/mL in the experiment on PMB-R, KPN.2463 (KPN.2463, PS 96-well plates); over 8 µg/mL in the experiment with ABA.2315 (PS 96-well plates).
